Laboratory results: PubChem BioAssay AID330 (DTP/NCI, 2004)
Where “and” joins values, the source holds several entries; their conditions need not be identical. Identical values can stand only once. Inconclusive results and toxic doses are left out.

Tested on: P388 leukemia ip, CD2F1 mice, survival T/C
Assay: NCI In Vivo Anticancer Drug Screen. Data for tumor model P388 Leukemia (intraperitoneal) in CD2F1 (CDF1) mice
Settings: endpoint: median survival time, higher = longer survival
How it was run: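 Mice carrying the transplanted tumor received test compound or vehicle. Survival was recorded in each group, and the value is the treated-group measurement divided by that of the vehicle-treated control group.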

[1] = dose: 50.0 mg/kg/injection, schedule: Q01DX009 (ip), vehicle: saline with Tween-80
[2] = dose: 100.0 mg/kg/injection, schedule: Q01DX009 (ip), vehicle: saline with Tween-80
[3] = dose: 200.0 mg/kg/injection, schedule: Q01DX009 (ip), vehicle: saline with Tween-80
[4] = dose: 50.0 mg/kg/injection, schedule: Q01DX009 (ip), vehicle: Klucel (hydroxypropylcellulose) (HPC)
[5] = dose: 100.0 mg/kg/injection, schedule: Q01DX009 (ip), vehicle: Klucel (hydroxypropylcellulose) (HPC)
[6] = dose: 200.0 mg/kg/injection, schedule: Q01DX009 (ip), vehicle: Klucel (hydroxypropylcellulose) (HPC)
[7] = dose: 60.0 mg/kg/injection, schedule: Q01DX005 (ip), vehicle: saline with Tween-80
[8] = dose: 120.0 mg/kg/injection, schedule: Q01DX005 (ip), vehicle: saline with Tween-80
[9] = dose: 240.0 mg/kg/injection, schedule: Q01DX005 (ip), vehicle: saline with Tween-80
[10] = dose: 50.0 mg/kg/injection, schedule: Q01DX005 (ip), vehicle: saline with Tween-80
[11] = dose: 100.0 mg/kg/injection, schedule: Q01DX005 (ip), vehicle: saline with Tween-80
[12] = dose: 200.0 mg/kg/injection, schedule: Q01DX005 (ip), vehicle: saline with Tween-80
[13] = dose: 100.0 mg/kg/injection, schedule: Q01DX001 (ip), vehicle: saline with Tween-80
[14] = dose: 200.0 mg/kg/injection, schedule: Q01DX001 (ip), vehicle: saline with Tween-80
[15] = dose: 400.0 mg/kg/injection, schedule: Q01DX001 (ip), vehicle: saline with Tween-80

With `Cc1cc(Cl)ccc1NC(=O)/N=C1\NC(=O)CS1` the T/C [1] was 87 % of control, the T/C [2] was 100 % of control and the T/C [3] was 110 % of control.
In the case of `CCN(CC)CC(O)CNc1ncnc(N)c1C(=C(C)C)c1ccc(Cl)cc1` (configuration not stated), the T/C (dose: 25.0 mg/kg/injection, schedule: Q01DX009 (ip), vehicle: saline with Tween-80) is reported as 100 % of control, the T/C [1] is reported as 100 % of control and the T/C [2] is reported as 90 % of control.
In the case of `O=C(CCSc1nc(-c2ccccc2)c(-c2ccccc2)o1)N1CCCCC1`, the T/C [4] is reported as 101 % of control, the T/C [5] is reported as 101 % of control and the T/C [6] is reported as 117 % of control.
`CSCc1cc(CO)no1` was tested, and the T/C [7] was 100 % of control, the T/C [8] was 99 % of control and the T/C [9] was 106 % of control.
In the case of `C=C1C2CCC3C(CCC4C5(C)CCCC43C3OCCN3C5)(C2)C1OC(C)=O` (configuration not stated), the T/C (dose: 12.0 mg/kg/injection, schedule: Q01DX009 (ip), vehicle: Klucel (hydroxypropylcellulose) (HPC)) is reported as 100 % of control, the T/C (dose: 24.0 mg/kg/injection, schedule: Q01DX009 (ip), vehicle: Klucel (hydroxypropylcellulose) (HPC)) is reported as 96 % of control and the T/C (dose: 48.0 mg/kg/injection, schedule: Q01DX009 (ip), vehicle: Klucel (hydroxypropylcellulose) (HPC)) is reported as 91 % of control.
In the case of `S=c1n(-c2ccc(Cl)cc2)c2nc3ccccc3nc(/c2=N\Nc2cc(Cl)ccc2Cl)n1-c1ccccn1`, the T/C [10] is reported as 103 % of control and the T/C [11] is reported as 100 % of control.
For `CC(C)(C=O)COC1OCN(C(C)(C)C)CC1(C)C` (configuration not stated), the T/C [1] was 104 % of control and the T/C [2] was 122 % of control.
For `CCN(CC)C1=Nc2ccccc2N(c2ccccc2)C(=S)C1`, the T/C (dose: 50.0 mg/kg/injection, schedule: Q01DX005 (ip), vehicle: Klucel (hydroxypropylcellulose) (HPC)) was 106 % of control, the T/C (dose: 100.0 mg/kg/injection, schedule: Q01DX005 (ip), vehicle: Klucel (hydroxypropylcellulose) (HPC)) was 103 % of control and the T/C (dose: 200.0 mg/kg/injection, schedule: Q01DX005 (ip), vehicle: Klucel (hydroxypropylcellulose) (HPC)) was 100 % of control.
With `C[CH2][Sn]([Cl])([CH2]C)[c]1cc[c]([Sn]([Cl])([CH2]C)[CH2]C)cc1` the T/C (dose: 0.02 mg/kg/injection, schedule: Q01DX005 (ip), vehicle: Klucel (hydroxypropylcellulose) (HPC)) was 118 % of control.
With `O=C(O)/C=N/NS(=O)(=O)c1cccc([N+](=O)[O-])c1` the T/C (dose: 25.0 mg/kg/injection, schedule: Q01DX009 (ip), vehicle: other) was 118 % of control and 119 % of control and 122 % of control, the T/C (dose: 50.0 mg/kg/injection, schedule: Q01DX009 (ip), vehicle: other) was 117 % of control and the T/C (dose: 200.0 mg/kg/injection, schedule: Q01DX009 (ip), vehicle: other) was 160 % of control.
`CN1C(c2ccccc2)CC(=O)C(N)C1c1ccccc1` (configuration not stated) was tested, and the T/C (dose: 50.0 mg/kg/injection, schedule: Q01DX005 (ip), vehicle: distilled water + Tween-80) was 92 % of control, the T/C (dose: 100.0 mg/kg/injection, schedule: Q01DX005 (ip), vehicle: distilled water + Tween-80) was 90 % of control and the T/C (dose: 200.0 mg/kg/injection, schedule: Q01DX005 (ip), vehicle: distilled water + Tween-80) was 92 % of control.
`O=Cc1ccc(N=Nc2c(S(=O)(=O)O)cc3cc(S(=O)(=O)O)cc(O)c3c2O)cc1` was tested, and the T/C [1] was 90 % of control, the T/C [2] was 90 % of control and the T/C [3] was 100 % of control.
In the case of `CCCc1nc(NC(=O)c2ccccc2)nc(NC(=O)c2ccccc2)n1`, the T/C [10] is reported as 102 % of control, the T/C [11] is reported as 106 % of control and the T/C [12] is reported as 106 % of control.
`O=[N+]([O-])c1ccc(NCCO)c([N+](=O)[O-])c1` was tested, and the T/C (dose: 100.0 mg/kg/injection, schedule: Q04DX003 (ip), vehicle: saline with Tween-80) was 100 % of control, the T/C (dose: 200.0 mg/kg/injection, schedule: Q04DX003 (ip), vehicle: saline with Tween-80) was 100 % of control and the T/C (dose: 400.0 mg/kg/injection, schedule: Q04DX003 (ip), vehicle: saline with Tween-80) was 90 % of control.
`CC(C)=CC[P+](CCCC[P+](CC=C(C)C)(c1ccccc1)c1ccccc1)(c1ccccc1)c1ccccc1` was tested, and the T/C (dose: 1.56 mg/kg/injection, schedule: Q04DX003 (ip), vehicle: saline) was 100 % of control and the T/C (dose: 3.12 mg/kg/injection, schedule: Q04DX003 (ip), vehicle: saline) was 101 % of control.
In the case of `C=CCNC(=S)N/N=C(/C=C/c1ccc(OC)cc1)CCN(C)C`, the T/C [13] is reported as 87 % of control, the T/C [14] is reported as 89 % of control and the T/C [15] is reported as 90 % of control.
With `O=[N+]([O-])c1ccc2c(c1)C1CN(Cc3ccccc31)C2` (configuration not stated) the T/C [13] was 90 % of control, the T/C [14] was 89 % of control and the T/C [15] was 97 % of control.
With `COC(=O)CC1(O)C=CC(=O)c2ccccc21` (configuration not stated) the T/C (dose: 12.5 mg/kg/injection, schedule: Q01DX005 (ip), vehicle: saline with Tween-80) was 94 % of control, the T/C (dose: 25.0 mg/kg/injection, schedule: Q01DX005 (ip), vehicle: saline with Tween-80) was 100 % of control and the T/C [10] was 109 % of control. For the same compound, the T/C [11] was 112 % of control.
`CCCCC[N+]1(CC)CCCCC1` was tested, and the T/C (dose: 3.12 mg/kg/injection, schedule: Q01DX009 (ip), vehicle: saline) was 104 % of control, the T/C (dose: 6.25 mg/kg/injection, schedule: Q01DX009 (ip), vehicle: saline) was 106 % of control and the T/C (dose: 12.5 mg/kg/injection, schedule: Q01DX009 (ip), vehicle: saline) was 104 % of control.
For `COc1cc2c(c3c1C(=O)c1c(cc4c(c1O)C(OC1OC(C)C(OC)C(C)(OC)C1OC)CC(C)(O)C4)C3=O)OC1OC2(C)C(O)C(N(C)C)C1O` (configuration not stated), the T/C (dose: 5.0 mg/kg/injection, schedule: Q01DX009 (ip), vehicle: other) was 153 % of control, the T/C (dose: 10.0 mg/kg/injection, schedule: Q01DX009 (ip), vehicle: other) was 159 % of control and the T/C (dose: 20.0 mg/kg/injection, schedule: Q01DX009 (ip), vehicle: other) was 168 % of control.
`O=C1CCC(Cc2ccc(Br)cc2)C(=O)N1` (configuration not stated) was tested, and the T/C [7] was 104 % of control, the T/C [8] was 98 % of control and the T/C [9] was 98 % of control.
With `O=C1Oc2ccccc2OC1c1ccccc1` (configuration not stated) the T/C [4] was 102 % of control, the T/C [5] was 106 % of control and the T/C [6] was 97 % of control.
With `CCCCCCCCCCCCCCCC1C(N)C(=O)N(C)N1C` (configuration not stated) the T/C [1] was 86 % of control and the T/C [2] was 95 % of control.
In the case of `CCCCCCCCCCCC(=O)c1c(O)cc(C)oc1=O`, the T/C (dose: 60.0 mg/kg/injection, schedule: Q01DX005 (ip), vehicle: Klucel (hydroxypropylcellulose) (HPC)) is reported as 100 % of control, the T/C (dose: 120.0 mg/kg/injection, schedule: Q01DX005 (ip), vehicle: Klucel (hydroxypropylcellulose) (HPC)) is reported as 98 % of control and the T/C (dose: 240.0 mg/kg/injection, schedule: Q01DX005 (ip), vehicle: Klucel (hydroxypropylcellulose) (HPC)) is reported as 105 % of control.
For `CS(=O)(=O)ON1C(=O)c2ccccc2C1=O`, the T/C (dose: 25.0 mg/kg/injection, schedule: Q04DX003 (ip), vehicle: Klucel (hydroxypropylcellulose) (HPC)) was 104 % of control and 108 % of control, the T/C (dose: 50.0 mg/kg/injection, schedule: Q04DX003 (ip), vehicle: Klucel (hydroxypropylcellulose) (HPC)) was 105 % of control and 110 % of control and the T/C (dose: 100.0 mg/kg/injection, schedule: Q04DX003 (ip), vehicle: Klucel (hydroxypropylcellulose) (HPC)) was 103 % of control and 95 % of control. The T/C (dose: 200.0 mg/kg/injection, schedule: Q04DX003 (ip), vehicle: Klucel (hydroxypropylcellulose) (HPC)) was 100 % of control.
In the case of `O=C(Nc1ccc(Cl)cc1)Nc1nnc2nc(C3(c4nc5nnc(NC(=O)Nc6ccc(Cl)cc6)n5[nH]c4=O)Cc4ccccc4C3=O)c(=O)[nH]n12`, the T/C [7] is reported as 103 % of control, the T/C [8] is reported as 107 % of control and the T/C [9] is reported as 98 % of control.
`CCOC(=O)CS(=O)(=O)CCS(=O)(=O)CC(=O)OCC` was tested, and the T/C (dose: 50.0 mg/kg/injection, schedule: Q01DX009 (ip), vehicle: saline) was 95 % of control, the T/C (dose: 100.0 mg/kg/injection, schedule: Q01DX009 (ip), vehicle: saline) was 97 % of control and the T/C (dose: 200.0 mg/kg/injection, schedule: Q01DX009 (ip), vehicle: saline) was 102 % of control.
For `CN=Nc1c(O)[nH]c2ccc(C)cc12`, the T/C [7] was 96 % of control, the T/C [8] was 98 % of control and the T/C [9] was 92 % of control.
With `COC(=O)/C=C\C1(CCC(=O)OC)N=C(c2ccccc2)OC1=O` (configuration not stated) the T/C [10] was 101 % of control, the T/C [11] was 92 % of control and the T/C [12] was 96 % of control.
For `C=C1CC2(CC3CC(C2C)C3(C)C)OC1=O` (configuration not stated), the T/C (dose: 25.0 mg/kg/injection, schedule: Q04DX002 (ip), vehicle: saline) was 102 % of control, the T/C (dose: 50.0 mg/kg/injection, schedule: Q04DX002 (ip), vehicle: saline) was 100 % of control and the T/C (dose: 100.0 mg/kg/injection, schedule: Q04DX002 (ip), vehicle: saline) was 100 % of control and 90 % of control. The T/C (dose: 400.0 mg/kg/injection, schedule: Q04DX002 (ip), vehicle: saline) was 100 % of control.
